Test results published in patent publication US10196353B2, “Chemical compounds” (GlaxoSmithKline Intellectual Property (No. 2) Limited, priority 2012, dated 2019).

Tests used:
[1] = tested on: castrated male Sprague-Dawley rats; test: Castrated male rat model (ORX rat); assay type: in vivo; conditions: for prostate sparing: defined as at least a 2:1 ratio of levator ani ED50 to prostate ED50; for levator ani hypertrophy: favorable = 30% or greater increase in levator ani weight vs vehicle-treated castrates, dosed orally at up to 10 mg/kg/day
Source text: The activity of the compounds of the present invention as modulators of the androgen receptor was investigated using a castrated male rat model (ORX) as described in C. D. Kockakian, Pharmac. Therap. B1(2), 149-177 (1975); C. Tobin and Y. Joubert, Developmental Biology 146, 131-138 (1991); J. Antonio, J. D. Wilson and F. W. George, J Appl. Physiol. 87(6) 2016-2019 (1999)) the disclosures of which herein are included by reference.
Androgens have been identified as playing important roles in the maintenance and growth of many tissues in both animals and humans. Muscles, like the levator ani and bulbocavernosus, and sexual accessory organs, such as the prostate glands and seminal vesicles have high expression levels of the androgen receptor and are known to respond quickly to exogenous androgen addition or androgen deprivation through testicular ablation. Castration produces dramatic atrophy of muscle and sexual accessory organs; whereas the administration of exogenous androgens to the castrated animal results in effective hypertrophy of these muscles and sexual accessory organs. Although the levator ani muscle, also known as the dorsal bulbocavernosus, is not ‘true skeletal muscle’ and definitely sex-linked, it is reasonable to use this muscle to screen muscle anabolic activities of test compounds because of its androgen responsiveness and simplicity of removal.
Male Sprague-Dawley rats weighing 160-180 grams were used in the assay. The rats were singly caged upon receiving and throughout the study. Bilateral orchidectomies were performed in sterilized surgical conditions under isoflurane anesthesia. An anteroposterior incision was made in the scrotum. The testicles were exteriorized and the spermatic artery and vas deferens were ligated with 4.0 silk 0.5 cm proximal to the ligation site. The testicles then were removed by a surgical scissors distal to the ligation sites. The tissue stumps were returned to the scrotum, the scrotum and overlying skin were closed by a surgical stapler. The Sham-ORX rats underwent all procedures except ligation and scissors cutting. The rats were assigned randomly into study groups 7-10 days post surgery based on the body weight.
Dihydrotestosterone (DHT) and the standard SARM, S-22, (J. Pharma. Exper. Thera. Vol 315, p. 230) were used as a positive control (1-10 mg/kg s.c. for DHT and 0.1 to 3 mg/kg p.o. for S-22). Compounds of the current invention were administered subcutaneously or orally for 4-28 days. Alternatively, some compounds of the current invention were administered subcutaneously or orally for 7-49 days. The rats were weighed daily and doses were adjusted accordingly. The general well being of the animal was monitored throughout the course of the study.
At the end of the study, the rats were euthanized in a CO2 chamber. The ventral prostate glands (VP), seminal vesicles (SV), levator ani muscle (LA) and bulbocavernosus (BC) were carefully dissected. The tissues were blotted dry; the weights were recorded, and then saved for histological and molecular analysis. The VP and SV weights serve as androgenic indicators and LA and BC as anabolic indicators. The ratio of anabolic to androgenic activities was used to evaluate the test compounds. Serum luteinizing hormone (LH), follicle stimulating hormone (FSH) and other potential serum markers of anabolic activities were also analyzed.
The compounds shown in Examples 9, 20, 26, 27, 33, 51, 52, and 53 were tested in the castrated male rate model essentially as described above. Test compounds were employed in free or salt form. […] Prostate sparing was defined as at least a 2:1 ratio of levator ani ED50 to prostate ED50. The ED50 is defined as 50% of the maximum response above the vehicle treated castrate level. For shorter term studies (4-7 days), the maximum response is defined as the maximum response from positive control (DHT or standard SARM, S-22) treatment. For the longer term studies (7-49 days), the ED50 is defined as 50% of the eugonadal state. […]

[2] = biological target: androgen receptor (MBP-hAR-LBD, rat androgen ligand binding domain) (Rattus norvegicus (Rat), UniProt P15207); test: Androgen receptor fluorescence polarization assay; conditions: read-out: % Max
Source text: • The following abbreviations and sources of materials are used • Fluormone PL Red—a commercially available PR fluoroprobe (Invitrogen, P2964) • Fluormone GS Red—a commercially available GR fluoroprobe (PanVera Corp, Product No P2894) • Fluormone AL Red—a commercially available AR fluoroprobe (Invitrogen, PV4294,) • MBP-hPR-LBD—maltose binding protein Purified human progesterone ligand binding domain (made in house) • GR—purified human glucocorticoid receptor (PanVera Corp, Product No P2812) • MBP-hAR-LBD—maltose binding protein Purified rat androgen ligand binding domain (made in house) • PR Screening Buffer—100 mM potassium phosphate (pH 7.4), 100 μG/ml bovine gamma globulin, 15% ethylene glycol, 10% glycerol with 2 mM CHAPS, 1 mM DTT added fresh and 4% DMSO added fresh (final of 5% DMSO in assay with 1% concentration coming from compound dispense) • AR Screening Buffer—50 mM Tris pH 7.5, 100 mM Ammonium Sulfate, 20% glycerol, 3% xylitol with 5 mM Chaps, 2 mM DTT added fresh and 4% DMSO added fresh (final of 5% DMSO in assay with 1% concentration coming from compound dispense) • GR Screening Buffer—100 mM potassium phosphate (pH 7.4), 200 mM Na2MoO2, 1 mM EDTA, 20% DMSO (PanVera Corp Product No P2814) with GR stabilizing peptide (100 μM) (PanVera Corp Product No P2815) • DTT—dithiothreitol (PanVera Corp Product No P2325) • Discovery Analyst—is an FP reader • DMSO—dimethylsulphoxide Progesterone Receptor Fluorescence Polarization Assay:
The androgen receptor fluorescence polarization assay is used to investigate the interaction of the compounds with the androgen receptor.
Compounds are added to the 384 well black low-volume plates to a final volume of 0.1 μL. DTT and DMSO are added to the chilled assay buffer just before beginning assay. Sufficient Fluormone AL Red and AR-LBD are defrosted on ice and added to the chilled buffer in a glass tube to give a final concentration of 1 nM and 100 nM, (for current batch) respectively. A volume of 10 μL of the assay mix is added to compound plates with a multidrop. […] The plates are counted in a Discovery Analyst with suitable 535 nm excitation and 590 nm emission interference filters (Dichroic 561 nM). […] Test compounds are dissolved and diluted in DMSO. Compounds are assayed in singlicate, a four parameter curve fit of the following form being applied
[formula] where a is the minimum, b is the Hill slope, c is the IC50 and d is the maximum.
Data is presented as the mean pIC50 with the standard error of the mean of n experiments.

Chain of androgen receptor (MBP-hAR-LBD, rat androgen ligand binding domain) (P15207 651-882): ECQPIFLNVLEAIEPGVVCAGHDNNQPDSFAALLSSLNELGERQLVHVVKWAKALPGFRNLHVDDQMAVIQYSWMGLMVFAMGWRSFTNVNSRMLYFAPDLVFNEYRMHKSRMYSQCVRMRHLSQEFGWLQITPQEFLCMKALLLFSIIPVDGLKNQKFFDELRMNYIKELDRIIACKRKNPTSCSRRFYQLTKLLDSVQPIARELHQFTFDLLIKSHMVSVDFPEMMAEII

SMILES: Cc1cc2c(C(F)(F)F)c(C#N)ccc2n1C(C)CS(C)(=O)=O (stereo not shown) [Example 9, 2-Methyl-1-(1-(methylsulfonyl)propan-2-yl)-4-(trifluoromethyl)-1H-indole-5-carbonitrile]
- prostate sparing [1]: spared the prostate
- levator ani hypertrophy [1]: favorable levator ani hypertrophy

SMILES: CCC(C(=O)OC)n1c(C)cc2c(C(F)(F)F)c(C#N)ccc21 (stereo not shown) [Example 2, Methyl 2-[5-cyano-2-methyl-4-(trifluoromethyl)-1H-indol-1-yl]butanoate]
- Emax [2]: 72%

SMILES: C[C@H](n1ccc2c(Cl)c(C#N)ccc21)C(C)(C)O [Example 32, (S)-4-Chloro-1-(3-hydroxy-3-methylbutan-2-yl)-1H-indole-5-carbonitrile]
- Emax [2]: 78%

SMILES: C[C@@H](n1ccc2c(Cl)c(C#N)ccc21)[C@](C)(O)C(F)(F)F [Example 52, 4-Chloro-1-((2R,3S)-4,4,4-trifluoro-3-hydroxy-3-methylbutan-2-yl)-1H-indole-5-carbonitrile]
- Emax [2]: 97%
- prostate sparing [1]: spared the prostate
- levator ani hypertrophy [1]: favorable levator ani hypertrophy

SMILES: CC(C)(O)C(C)(C)n1ccc2c(C#N)c(C#N)ccc21 [Example 43, 1-(3-Hydroxy-2,3-dimethylbutan-2-yl)-1H-indole-4,5-dicarbonitrile]
- Emax [2]: 105%

SMILES: CSCC(C)n1c(C(F)F)cc2c(C#N)c(C#N)ccc21 (stereo not shown) [Example 17, 2-(Difluoromethyl)-1-(1-(methylthio)propan-2-yl)-1H-indole-4,5-dicarbonitrile]
- Emax [2]: 99%

SMILES: CC(CS(C)(=O)=O)n1ccc2c(C(F)(F)F)c(C#N)ccc21 (stereo not shown) [Example 26, 1-(1-(Methylsulfonyl)propan-2-yl)-4-(trifluoromethyl)-1H-indole-5-carbonitrile]
- prostate sparing [1]: spared the prostate
- levator ani hypertrophy [1]: favorable levator ani hypertrophy

SMILES: C[C@@H](n1ccc2c(C(F)(F)F)c(C#N)ccc21)C(C)(C)O [Example 22, (R)-1-(3-Hydroxy-3-methylbutan-2-yl)-4-(trifluoromethyl)-1H-indole-5-carbonitrile]
- Emax [2]: 100%

SMILES: CC[C@H](c1cncc(C#N)c1)n1ccc2c(C#N)c(C#N)ccc21 [Example 51, (R)-1-(1-(5-Cyanopyridin-3-yl)propyl)-1H-indole-4,5-dicarbonitrile]
- prostate sparing [1]: spared the prostate
- levator ani hypertrophy [1]: favorable levator ani hypertrophy

SMILES: C[C@H](n1ccc2c(C(F)(F)F)c(C#N)ccc21)C(C)(C)O [Example 21, (S)-1-(3-Hydroxy-3-methylbutan-2-yl)-4-(trifluoromethyl)-1H-indole-5-carbonitrile]
- Emax [2]: 100%

SMILES: Cc1cc2c(C(F)(F)F)c(C#N)ccc2n1C(C)CO (stereo not shown) [Example 7, 1-(1-Hydroxypropan-2-yl)-2-methyl-4-(trifluoromethyl)-1H-indole-5-carbonitrile]
- Emax [2]: 100%

SMILES: C[C@@H](n1ccc2c(C(F)(F)F)c(C#N)ccc21)[C@](C)(O)C(F)(F)F [Example 53, 1-((2R,3S)-4,4,4-Trifluoro-3-hydroxy-3-methylbutan-2-yl)-4-(trifluoromethyl)-1H-indole-5-carbonitrile]
- prostate sparing [1]: spared the prostate
- levator ani hypertrophy [1]: favorable levator ani hypertrophy

SMILES: CCCc1cc2c(C(F)(F)F)c(C#N)ccc2n1CC(C)(C)O [Example 12, 1-(2-Hydroxy-2-methylpropyl)-2-propyl-4-(trifluoromethyl)-1H-indole-5-carbonitrile]
- Emax [2]: 90%

SMILES: C[C@H](CS(C)(=O)=O)n1ccc2c(C(F)(F)F)c(C#N)ccc21 [Example 27, (R)-1-(1-(Methylsulfonyl)propan-2-yl)-4-(trifluoromethyl)-1H-indole-5-carbonitrile]
- Emax [2]: 91%
- prostate sparing [1]: spared the prostate
- levator ani hypertrophy [1]: favorable levator ani hypertrophy
